From US20230365559A1, “NOVEL AMINOPYRIDINES AND THEIR USE IN TREATING CANCER” (priority 2020, published 2023)
pIC50: −log10 of the molar value. Several values for one entry are separate records, joined by “and”; a condition that tells them apart may be missing. Equal values may be shown once. Entries after “also recorded” stand apart in the source; their conditions may differ.

Key:
ATM = ATM (Homo sapiens, UniProt Q13315); experiment: ATM Human PIKK Kinase Enzymatic ELISA/EIA Assay, KinaseProfiler (Eurofins Discovery); type: biochemical; settings: KinaseProfiler, Km ATP; Table 15; read-out: Inhibition of PIKK kinase activity ATM
Sequence of ATM (Q13315 whole entry): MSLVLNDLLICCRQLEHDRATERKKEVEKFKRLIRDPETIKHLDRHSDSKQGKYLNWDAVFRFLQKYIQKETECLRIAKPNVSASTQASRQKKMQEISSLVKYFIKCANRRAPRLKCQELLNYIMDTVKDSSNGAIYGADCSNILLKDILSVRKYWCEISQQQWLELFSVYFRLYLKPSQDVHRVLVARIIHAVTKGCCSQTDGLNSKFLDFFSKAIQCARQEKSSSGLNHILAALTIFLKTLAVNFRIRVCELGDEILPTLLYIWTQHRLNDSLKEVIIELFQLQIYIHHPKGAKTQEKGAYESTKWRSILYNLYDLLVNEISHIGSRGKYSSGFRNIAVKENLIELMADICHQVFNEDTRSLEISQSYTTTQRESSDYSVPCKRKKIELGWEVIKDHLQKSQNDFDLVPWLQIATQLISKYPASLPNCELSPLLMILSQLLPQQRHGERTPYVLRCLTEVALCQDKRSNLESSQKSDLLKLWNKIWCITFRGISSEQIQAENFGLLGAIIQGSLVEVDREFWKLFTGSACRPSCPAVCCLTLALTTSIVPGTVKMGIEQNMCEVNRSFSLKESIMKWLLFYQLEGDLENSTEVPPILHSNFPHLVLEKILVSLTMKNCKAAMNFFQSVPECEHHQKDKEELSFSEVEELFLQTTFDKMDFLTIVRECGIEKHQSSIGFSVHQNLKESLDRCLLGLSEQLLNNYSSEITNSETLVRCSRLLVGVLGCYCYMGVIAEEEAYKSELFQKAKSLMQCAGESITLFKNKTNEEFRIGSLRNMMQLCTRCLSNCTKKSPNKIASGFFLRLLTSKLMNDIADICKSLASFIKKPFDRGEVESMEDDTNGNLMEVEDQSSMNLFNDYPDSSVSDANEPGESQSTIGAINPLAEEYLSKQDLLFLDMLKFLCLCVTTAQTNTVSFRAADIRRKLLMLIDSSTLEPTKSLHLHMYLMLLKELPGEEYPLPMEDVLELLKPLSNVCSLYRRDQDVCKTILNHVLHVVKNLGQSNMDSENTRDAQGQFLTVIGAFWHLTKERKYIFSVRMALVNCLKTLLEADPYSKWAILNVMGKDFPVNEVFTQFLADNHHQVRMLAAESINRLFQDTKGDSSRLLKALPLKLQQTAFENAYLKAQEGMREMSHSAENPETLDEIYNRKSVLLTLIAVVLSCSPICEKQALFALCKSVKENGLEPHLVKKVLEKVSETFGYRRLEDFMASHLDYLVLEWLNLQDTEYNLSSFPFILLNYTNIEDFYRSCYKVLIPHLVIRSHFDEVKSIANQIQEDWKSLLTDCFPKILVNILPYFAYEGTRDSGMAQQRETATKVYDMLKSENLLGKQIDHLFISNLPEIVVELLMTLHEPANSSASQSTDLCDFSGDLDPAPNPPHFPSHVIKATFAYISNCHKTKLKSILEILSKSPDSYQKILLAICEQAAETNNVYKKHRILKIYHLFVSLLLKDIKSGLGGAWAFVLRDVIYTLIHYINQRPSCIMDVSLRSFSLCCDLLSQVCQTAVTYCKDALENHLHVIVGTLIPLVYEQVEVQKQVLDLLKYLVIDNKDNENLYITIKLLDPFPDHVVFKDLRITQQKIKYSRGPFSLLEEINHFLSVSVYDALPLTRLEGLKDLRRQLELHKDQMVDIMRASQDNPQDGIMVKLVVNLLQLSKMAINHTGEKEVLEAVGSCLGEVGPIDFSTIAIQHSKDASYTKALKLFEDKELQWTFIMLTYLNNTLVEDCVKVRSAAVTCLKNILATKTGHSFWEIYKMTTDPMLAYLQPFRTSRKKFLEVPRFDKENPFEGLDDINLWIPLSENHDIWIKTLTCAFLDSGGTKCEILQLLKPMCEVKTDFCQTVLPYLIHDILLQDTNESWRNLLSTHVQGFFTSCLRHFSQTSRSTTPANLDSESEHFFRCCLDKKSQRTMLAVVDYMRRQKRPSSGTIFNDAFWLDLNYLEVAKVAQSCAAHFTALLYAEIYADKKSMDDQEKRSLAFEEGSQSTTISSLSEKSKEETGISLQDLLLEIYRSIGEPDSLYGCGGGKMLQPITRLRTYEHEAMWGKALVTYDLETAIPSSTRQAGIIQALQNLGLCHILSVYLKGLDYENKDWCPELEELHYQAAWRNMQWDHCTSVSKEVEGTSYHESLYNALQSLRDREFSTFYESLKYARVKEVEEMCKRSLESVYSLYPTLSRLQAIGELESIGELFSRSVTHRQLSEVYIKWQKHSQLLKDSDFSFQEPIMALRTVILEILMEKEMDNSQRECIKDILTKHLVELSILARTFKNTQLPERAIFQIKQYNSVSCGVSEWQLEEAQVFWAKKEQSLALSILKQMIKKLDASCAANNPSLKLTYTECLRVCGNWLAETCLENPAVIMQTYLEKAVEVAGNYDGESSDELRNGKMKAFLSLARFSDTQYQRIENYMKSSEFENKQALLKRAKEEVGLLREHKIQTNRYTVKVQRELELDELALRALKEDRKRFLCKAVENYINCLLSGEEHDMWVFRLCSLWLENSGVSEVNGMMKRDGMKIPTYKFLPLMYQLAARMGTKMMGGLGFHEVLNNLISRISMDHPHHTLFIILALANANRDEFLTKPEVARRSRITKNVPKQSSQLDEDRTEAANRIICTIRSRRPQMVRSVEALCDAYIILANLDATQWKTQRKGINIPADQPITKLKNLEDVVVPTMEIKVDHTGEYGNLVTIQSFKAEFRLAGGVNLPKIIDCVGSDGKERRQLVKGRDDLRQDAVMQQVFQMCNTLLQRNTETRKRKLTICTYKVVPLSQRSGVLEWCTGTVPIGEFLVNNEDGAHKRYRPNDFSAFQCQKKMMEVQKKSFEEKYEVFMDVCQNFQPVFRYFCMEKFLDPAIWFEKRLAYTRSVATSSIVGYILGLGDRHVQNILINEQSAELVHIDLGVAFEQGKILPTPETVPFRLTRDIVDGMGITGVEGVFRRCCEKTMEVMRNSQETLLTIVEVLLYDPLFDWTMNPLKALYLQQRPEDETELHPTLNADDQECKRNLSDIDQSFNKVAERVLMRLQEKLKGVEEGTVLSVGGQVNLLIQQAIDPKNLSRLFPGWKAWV

HAP1/PRKDC−/− cells = experiment: Radiosensitisation of DNA-PK null HAP1/PRKDC−/− cells, regrowth assay; type: cell-based, human; settings: for pIC50: Homo sapiens, HAP1; for radiosensitisation / differential growth inhibition of DNA-PK null HAP1 line: 3 Gy, HAP1/PRKDC−/−
HAP1 cells = experiment: Radiosensitisation of HAP1 wild type cells, regrowth assay; type: cell-based, human; settings: for pIC50: Homo sapiens, HAP1, read-out: HAP1 wt IC50; for effect in unirradiated HAP1 cells: 0 Gy; for radiosensitisation / differential growth inhibition of HAP1 cells: 3 Gy cobalt-60 gamma irradiation relative to radiation-only
human DNA-PK = human DNA-PK (Homo sapiens, UniProt P78527); experiment: Inhibition of DNA-PKcs kinase activity, HotSpot assay (Reaction Biology), [γ-33P]-ATP phosphorylation of peptide substrate; type: biochemical; settings: 10 μM ATP, 10 μg/ml DNA; mean of two replicates; Table 12; read-out: Inhibition of kinase activity (as IC50) DNA-PK (converted)
UT-SCC-54C cells [1] = experiment: Radiosensitisation of UT-SCC-54C HNSCC cells, regrowth (sulforhodamine B) assay, oxic (Table 16); type: cell-based, human; settings: for pIC50: Homo sapiens, read-out: IC50; for S50: compound in combination with 3 Gy of radiation, 50% inhibition of regrowth fraction, UT-SCC-54C; for S50 / radiosensitisation / differential growth inhibition of UT-SCC-54C cells: oxic; for radiosensitisation / differential growth inhibition of UT-SCC-54C cells: 0 or 3 Gy, regrowth assay
human PI3Kα (p110α/p85α) = human PI3Kα (p110α/p85α) (Homo sapiens, UniProt P42336); experiment: Inhibition of PI3Kα kinase activity, ADP-Glo Assay (Reaction Biology); type: biochemical; settings: 10 μM ATP; mean of two replicates; Table 12; read-out: Inhibition of kinase activity (as IC50) PICK
Sequence of human PI3Kα (p110α/p85α) (P42336 whole entry): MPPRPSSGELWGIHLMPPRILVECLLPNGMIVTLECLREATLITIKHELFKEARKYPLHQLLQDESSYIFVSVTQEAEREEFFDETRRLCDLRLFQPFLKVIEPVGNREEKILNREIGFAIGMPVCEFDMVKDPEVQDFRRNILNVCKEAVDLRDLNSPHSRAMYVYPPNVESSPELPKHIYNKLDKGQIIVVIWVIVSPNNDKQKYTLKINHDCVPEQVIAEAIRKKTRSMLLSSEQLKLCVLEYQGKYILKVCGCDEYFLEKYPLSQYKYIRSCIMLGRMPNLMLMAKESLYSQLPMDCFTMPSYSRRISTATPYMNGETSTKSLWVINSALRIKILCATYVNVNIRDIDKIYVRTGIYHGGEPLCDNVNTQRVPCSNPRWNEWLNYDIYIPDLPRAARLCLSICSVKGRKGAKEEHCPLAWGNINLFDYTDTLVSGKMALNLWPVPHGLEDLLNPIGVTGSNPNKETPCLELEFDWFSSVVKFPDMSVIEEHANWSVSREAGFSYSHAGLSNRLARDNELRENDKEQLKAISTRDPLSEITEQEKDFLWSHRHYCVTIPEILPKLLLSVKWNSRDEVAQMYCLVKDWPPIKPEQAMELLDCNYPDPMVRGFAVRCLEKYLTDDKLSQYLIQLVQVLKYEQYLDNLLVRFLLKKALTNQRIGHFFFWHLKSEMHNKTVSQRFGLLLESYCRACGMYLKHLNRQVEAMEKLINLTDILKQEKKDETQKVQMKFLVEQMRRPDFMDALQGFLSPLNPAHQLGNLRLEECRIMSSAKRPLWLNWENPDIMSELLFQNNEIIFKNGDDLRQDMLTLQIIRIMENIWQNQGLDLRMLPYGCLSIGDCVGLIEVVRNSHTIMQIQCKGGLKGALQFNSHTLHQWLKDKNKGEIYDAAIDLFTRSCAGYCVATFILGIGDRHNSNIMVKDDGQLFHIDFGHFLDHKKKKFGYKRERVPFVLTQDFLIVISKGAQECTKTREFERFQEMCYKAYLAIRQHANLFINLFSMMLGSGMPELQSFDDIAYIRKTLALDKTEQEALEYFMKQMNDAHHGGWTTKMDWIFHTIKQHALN
Sequence of human PI3Kα (p110α/p85α) (P27986 whole entry partner): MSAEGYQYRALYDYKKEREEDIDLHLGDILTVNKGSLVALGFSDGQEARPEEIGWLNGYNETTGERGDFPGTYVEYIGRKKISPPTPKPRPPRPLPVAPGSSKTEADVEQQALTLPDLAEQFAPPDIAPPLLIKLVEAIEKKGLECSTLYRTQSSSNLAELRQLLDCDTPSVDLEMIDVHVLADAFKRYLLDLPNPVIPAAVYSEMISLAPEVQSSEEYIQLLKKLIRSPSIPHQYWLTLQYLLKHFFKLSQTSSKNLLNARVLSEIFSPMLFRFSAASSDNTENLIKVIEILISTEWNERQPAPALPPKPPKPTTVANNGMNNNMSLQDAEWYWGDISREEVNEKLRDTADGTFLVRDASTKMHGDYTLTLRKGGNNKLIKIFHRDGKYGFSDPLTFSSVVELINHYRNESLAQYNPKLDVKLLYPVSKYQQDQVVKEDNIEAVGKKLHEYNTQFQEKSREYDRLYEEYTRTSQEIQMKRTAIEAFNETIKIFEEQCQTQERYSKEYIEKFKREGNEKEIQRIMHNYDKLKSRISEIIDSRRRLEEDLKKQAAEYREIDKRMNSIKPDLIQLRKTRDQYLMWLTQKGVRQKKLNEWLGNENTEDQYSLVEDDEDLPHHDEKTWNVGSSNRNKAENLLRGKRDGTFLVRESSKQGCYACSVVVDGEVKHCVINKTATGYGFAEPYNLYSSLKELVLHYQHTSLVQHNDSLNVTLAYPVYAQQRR

UT-SCC-54C cells [2] = experiment: Radiosensitisation of UT-SCC-54C HNSCC cells, clonogenic survival, oxic and anoxic (Table 18); type: cell-based, human; settings: for Plating efficiency drug/no drug: no radiation
human mTOR = human mTOR (Homo sapiens, UniProt P42345); experiment: Inhibition of mTOR kinase activity, HotSpot assay, phosphorylation of 4EPB1; settings: Inhibition of kinase activity (as IC50) mTOR (nM), 10 μM ATP; mean of two replicates; Table 12

Cn1c(=O)n(C2CCCC2)c2cc(Nc3ccc4nccnc4c3)ncc21 [Compound 68, 1-Cyclopentyl-3-methyl-6-(quinoxalin-6-ylamino)-1,3-dihydro-2H-imidazo[4,5-c]pyridin-2-one]
pIC50 (ATM): 6.03

Cc1cc(Cl)ccc1Nc1cc2c(cn1)n(C)c(=O)n2C1CCOC1 (stereo not drawn) [Compound 116, 6-((4-Chloro-2-methylphenyl)amino)-3-methyl-1-(tetrahydrofuran-3-yl)-1,3-dihydro-2H-imidazo[4,5-c]pyridin-2-one]
pIC50 (HAP1/PRKDC−/− cells): < 5.00
pIC50 (HAP1 cells): < 5.00
IC50 (human DNA-PK): 0.0049 µM
pIC50 (UT-SCC-54C cells [1]): < 5.00
S50 (UT-SCC-54C cells [1]): 0.06 µM
pIC50 (human PI3Kα (p110α/p85α)): 5.26

Cc1cc(O)ccc1Nc1cc2c(cn1)n(C)c(=O)n2C1CCOCC1 [Compound 135, 6-((4-Hydroxy-2-methylphenyl)amino)-3-methyl-1-(tetrahydro-2H-pyran-4-yl)-1,3-dihydro-2H-imidazo[4,5-c]pyridin-2-one]
radiosensitisation / differential growth inhibition of DNA-PK null HAP1 line (HAP1/PRKDC−/− cells): did not radiosensitise; also recorded: did not demonstrate any differential growth inhibition
pIC50 (HAP1/PRKDC−/− cells): < 5.00
effect in unirradiated HAP1 cells (HAP1 cells): little effect
pIC50 (HAP1 cells): < 5.00
IC50 (human DNA-PK): 0.0057 µM and 0.0171 µM
pIC50 (UT-SCC-54C cells [1]): < 5.00
S50 (UT-SCC-54C cells [1]): 0.93 µM
D1 (radiation dose for 1% surviving fraction) (UT-SCC-54C cells [2]; 0% O2, compound conc 1 μM): 11.5 Gy
D10 (radiation dose for 10% surviving fraction) (UT-SCC-54C cells [2]; 0% O2, compound conc 1 μM): 6.37 Gy
SER1 (sensitiser enhancement ratio at 1% surviving fraction) (UT-SCC-54C cells [2]; 0% O2, compound conc 1 μM): 2.07
SER10 (sensitiser enhancement ratio at 10% surviving fraction) (UT-SCC-54C cells [2]; 0% O2, compound conc 1 μM): 2.47
Plating efficiency drug/no drug (UT-SCC-54C cells [2]; 0% O2, compound conc 1 μM): 1.12
D1 (radiation dose for 1% surviving fraction) (UT-SCC-54C cells [2]; 20% O2, compound conc 0.33 μM): 1.37 Gy
D10 (radiation dose for 10% surviving fraction) (UT-SCC-54C cells [2]; 20% O2, compound conc 0.33 μM): 4.85 Gy
SER1 (sensitiser enhancement ratio at 1% surviving fraction) (UT-SCC-54C cells [2]; 20% O2, compound conc 0.33 μM): 1.20
SER10 (sensitiser enhancement ratio at 10% surviving fraction) (UT-SCC-54C cells [2]; 20% O2, compound conc 0.33 μM): 8.09
Plating efficiency drug/no drug (UT-SCC-54C cells [2]; 20% O2, compound conc 0.33 μM): 0.77
D10 (radiation dose for 10% surviving fraction) (UT-SCC-54C cells [2]; 20% O2, compound conc 1 μM): 3.15 Gy and 2.88 Gy
SER1 (sensitiser enhancement ratio at 1% surviving fraction) (UT-SCC-54C cells [2]; 20% O2, compound conc 1 μM): 1.5 and 1.59
Plating efficiency drug/no drug (UT-SCC-54C cells [2]; 20% O2, compound conc 1 μM): 0.59 and 0.89
D1 (radiation dose for 1% surviving fraction) (UT-SCC-54C cells [2]; 20% O2, compound conc 3 μM): 2.91 Gy
D10 (radiation dose for 10% surviving fraction) (UT-SCC-54C cells [2]; 20% O2, compound conc 3 μM): 2.28 Gy
SER1 (sensitiser enhancement ratio at 1% surviving fraction) (UT-SCC-54C cells [2]; 20% O2, compound conc 3 μM): 1.92
SER10 (sensitiser enhancement ratio at 10% surviving fraction) (UT-SCC-54C cells [2]; 20% O2, compound conc 3 μM): 5.06
Plating efficiency drug/no drug (UT-SCC-54C cells [2]; 20% O2, compound conc 3 μM): 0.63
radiosensitisation, clonogenic survival endpoint (UT-SCC-54C cells [2]; UT-SCC-54C, FIG. 8 and Table 18): concentration-dependent increases in radiosensitisation
pIC50 (human PI3Kα (p110α/p85α)): 5.49 and 5.28

COc1ccc(N(C(=O)OCc2ncc([N+](=O)[O-])n2C)c2cc3c(cn2)n(C)c(=O)n3C2CCOCC2)c(C)c1 [Compound 251, (1-Methyl-5-nitro-1H-imidazol-2-yl)methyl (4-methoxy-2-methylphenyl)(3-methyl-2-oxo-1-(tetrahydro-2H-pyran-4-yl)-2,3-dihydro-1H-imidazo[4,5-c]pyridin-6-yl)carbamate]
IC50 (human mTOR): > 100000 nM
IC50 (human DNA-PK): 1.26 µM
pIC50 (UT-SCC-54C cells [1]): < 5.00
S50 (UT-SCC-54C cells [1]): >10 µM
radiosensitisation / differential growth inhibition of UT-SCC-54C cells (UT-SCC-54C cells [1]): did not display any differential growth inhibition
D1 (radiation dose for 1% surviving fraction) (UT-SCC-54C cells [2]; 0% O2, compound conc 1 μM): 19.50 Gy
D10 (radiation dose for 10% surviving fraction) (UT-SCC-54C cells [2]; 0% O2, compound conc 1 μM): 13.17 Gy
SER1 (sensitiser enhancement ratio at 1% surviving fraction) (UT-SCC-54C cells [2]; 0% O2, compound conc 1 μM): 1.10
SER10 (sensitiser enhancement ratio at 10% surviving fraction) (UT-SCC-54C cells [2]; 0% O2, compound conc 1 μM): 1.06
Plating efficiency drug/no drug (UT-SCC-54C cells [2]; 0% O2, compound conc 1 μM): 1.03
sensitisation of UT-SCC-54C cells selectively under anoxia (UT-SCC-54C cells [2]; oxic vs anoxic, clonogenic survival, FIGS. 9 and 10): provide sensitisation of UT-SCC-54C cells selectively under anoxia
pIC50 (human PI3Kα (p110α/p85α)): < 4.00

COc1cc(C)c(Nc2cc3c(cn2)n(C)c(=O)n3C2CCOCC2)cn1 [Compound 126, 6-((6-Methoxy-4-methylpyridin-3-yl)amino)-3-methyl-1-(tetrahydro-2H-pyran-4-yl)-1,3-dihydro-2H-imidazo[4,5-c]pyridin-2-one]
IC50 (human mTOR): 12600 nM
radiosensitisation / differential growth inhibition of DNA-PK null HAP1 line (HAP1/PRKDC−/− cells): did not radiosensitise
pIC50 (HAP1/PRKDC−/− cells): < 5.00
effect in unirradiated HAP1 cells (HAP1 cells): little effect
radiosensitisation / differential growth inhibition of HAP1 cells (HAP1 cells): concentration-dependent radiosensitisation
pIC50 (HAP1 cells): < 5.00
IC50 (human DNA-PK): 0.00906 µM
pIC50 (UT-SCC-54C cells [1]): < 5.00
S50 (UT-SCC-54C cells [1]): 0.32 µM
pIC50 (human PI3Kα (p110α/p85α)): 5.37

Cc1cc(Cl)ccc1N(C(=O)OCc1cnc([N+](=O)[O-])n1C)c1cc2c(cn1)n(C)c(=O)n2C1CCOCC1 [Compound 257, (1-Methyl-2-nitro-1H-imidazol-5-yl)methyl (4-chloro-2-methylphenyl)(3-methyl-2-oxo-1-(tetrahydro-2H-pyran-4-yl)-2,3-dihydro-1H-imidazo[4,5-c]pyridin-6-yl)carbamate]
IC50 (human mTOR): > 100000 nM
IC50 (human DNA-PK): 0.203 µM
pIC50 (UT-SCC-54C cells [1]): < 5.00
S50 (UT-SCC-54C cells [1]): >10 µM
radiosensitisation / differential growth inhibition of UT-SCC-54C cells (UT-SCC-54C cells [1]): did not display any differential growth inhibition
pIC50 (human PI3Kα (p110α/p85α)): < 4.00

COc1ccc(N(C(=O)OCc2cnc([N+](=O)[O-])n2C)c2cc3c(cn2)n(C)c(=O)n3C2CCCC2)c(C)c1 [Compound 247, (1-Methyl-2-nitro-1H-imidazol-5-yl)methyl (1-cyclopentyl-3-methyl-2-oxo-2,3-dihydro-1H-imidazo[4,5-c]pyridin-6-yl)(4-methoxy-2-methylphenyl)carbamate]
IC50 (human mTOR): > 100000 nM
IC50 (human DNA-PK): 0.871 µM
pIC50 (UT-SCC-54C cells [1]): < 5.00
S50 (UT-SCC-54C cells [1]): >10 µM
radiosensitisation / differential growth inhibition of UT-SCC-54C cells (UT-SCC-54C cells [1]): did not display any differential growth inhibition
pIC50 (human PI3Kα (p110α/p85α)): < 5.00

Cc1cc2nccnc2cc1Nc1cc2c(cn1)n(C)c(=O)n2C1CCOCC1 [Compound 225, 3-Methyl-6-((7-methylquinoxalin-6-yl)amino)-1-(tetrahydro-2H-pyran-4-yl)-1,3-dihydro-2H-imidazo[4,5-c]pyridin-2-one]
IC50 (human mTOR): 58500 nM
IC50 (human DNA-PK): 0.0034 µM
pIC50 (UT-SCC-54C cells [1]): < 5.00
S50 (UT-SCC-54C cells [1]): 0.27 µM
pIC50 (human PI3Kα (p110α/p85α)): 5.78

Cc1cc2c(cc1Nc1cc3c(cn1)n(C)c(=O)n3C1CCOCC1)OCO2 [Compound 130, 3-Methyl-6-((6-methylbenzo[d][1,3]dioxol-5-yl)amino)-1-(tetrahydro-2H-pyran-4-yl)-1,3-dihydro-2H-imidazo[4,5-c]pyridin-2-one]
IC50 (human mTOR): 10800 nM
IC50 (human DNA-PK): 0.00305 µM
pIC50 (UT-SCC-54C cells [1]): < 5.00
S50 (UT-SCC-54C cells [1]): 0.50 µM
pIC50 (human PI3Kα (p110α/p85α)): 5.60

Cc1ccc(S(C)(=O)=O)cc1Nc1cc2c(cn1)n(C)c(=O)n2C1CCOCC1 [Compound 123, 3-Methyl-6-((2-methyl-5-(methylsulfonyl)phenyl)amino)-1-(tetrahydro-2H-pyran-4-yl)-1,3-dihydro-2H-imidazo[4,5-c]pyridin-2-one]
IC50 (human mTOR): > 100000 nM
IC50 (human DNA-PK): 0.00013 µM
pIC50 (UT-SCC-54C cells [1]): < 5.00
S50 (UT-SCC-54C cells [1]): 0.74 µM
pIC50 (human PI3Kα (p110α/p85α)): 6.17

Cc1cc(Cl)ncc1Nc1cc2c(cn1)n(C)c(=O)n2C1CCOCC1 [Compound 218, 6-((6-Chloro-4-methylpyridin-3-yl)amino)-3-methyl-1-(tetrahydro-2H-pyran-4-yl)-1,3-dihydro-2H-imidazo[4,5-c]pyridin-2-one]
IC50 (human mTOR): 68400 nM
IC50 (human DNA-PK): 0.094 µM
pIC50 (UT-SCC-54C cells [1]): < 5.00
S50 (UT-SCC-54C cells [1]): 3.1 µM
pIC50 (human PI3Kα (p110α/p85α)): 4.85

Cc1nc2cc(C)c(Nc3cc4c(cn3)n(C)c(=O)n4C3CCOCC3)cc2o1 [Compound 132, 6-((2,5-Dimethylbenzo[d]oxazol-6-yl)amino)-3-methyl-1-(tetrahydro-2H-pyran-4-yl)-1,3-dihydro-2H-imidazo[4,5-c]pyridin-2-one]
IC50 (human mTOR): 60200 nM
radiosensitisation / differential growth inhibition of DNA-PK null HAP1 line (HAP1/PRKDC−/− cells): did not radiosensitise
effect in unirradiated HAP1 cells (HAP1 cells): little effect
radiosensitisation / differential growth inhibition of HAP1 cells (HAP1 cells): concentration-dependent radiosensitisation
IC50 (human DNA-PK): 0.0126 µM
pIC50 (UT-SCC-54C cells [1]): < 5.00
S50 (UT-SCC-54C cells [1]): 0.49 µM
pIC50 (human PI3Kα (p110α/p85α)): 5.25
